Source: US7744867B2, “PTPase inhibitors and method of using same” (The Cleveland Clinic Foundation, priority 2001, dated 2010)

Columns and labels:
[1] = system: NB4 cells; test: Differentiation, proliferation and cell cycle of AML cell line; assay type: cell-based, human
Protocol: Cell lines, cell culture, and cell proliferation assay. The NB4 cell line was a gift from Dr. Dan Lindner of CCF. HL60 and U937 cell lines were purchased from ATCC. These human AML cell lines were maintained in RPMI 1640 medium supplemented with 10% fetal calf serum (FCS). For cell proliferation assays, cells were cultured at 37° C. in 10% FCS medium containing various amounts of sodium stibogluconate for 6 days. The cell numbers in the cultures were determined by an MTT assay as described previously.
Differentiation of AML cell lines was assessed by their ability to produce superoxide as measured by reduction of NBT to formazan and by analysis of expression of CD11b surface marker by flow cytometry. For NBT reduction, each cell suspension was mixed with an equal volume of solution containing 1 mg/ml of NBT (Sigma) and 2.5 μg/ml of TPA for 30 minutes at 37° C. After incubation, cells containing the purple formazan deposits and cells devoid of NBT-reducing activity (white cells) in each sample were determined by counting 200 cells under microscope. We expressed the data as percentage of the following ratio: purple cells/purple+white cells. For analysis of cell surface antigens, cells were exposed to phycoerythrin (PE)−conjugated murine anti-human CD11b (DAKO corp, Carpinteria, Calif.). Analysis of fluorescence was performed on a FACScan flow cytometer (Beckton Dickinson, Mountain View, Calif.). The cell cycle was analyzed by flow cytometry after 3 days of culture of NB4 cells in the absence or presence of sodium stibogluconate (250 μg/ml) or ATRA (1 μM). Briefly, the cells were fixed in cold ethanol and incubated for 30 minutes at 4° C. in the dark with a solution of […] propidium iodide, 1 mg/ml RNase and 0.1% NP-40. Analysis was performed immediately after staining using the CELLFIT program (Becton Dickinson, Mountain View, Calif.).

[2] = system: Leishmaniasis; settings: cited from earlier work
[3] = molecular target: T1, recombinant PRL-2 (Homo sapiens, UniProt Q12974); test: In vitro PTPase assay with recombinant PRL; assay type: biochemical; settings: washing process / stable complex
T1 construct: made in house; host or cells: E. coli DH5α
T1 sequence (Q12974 1-167): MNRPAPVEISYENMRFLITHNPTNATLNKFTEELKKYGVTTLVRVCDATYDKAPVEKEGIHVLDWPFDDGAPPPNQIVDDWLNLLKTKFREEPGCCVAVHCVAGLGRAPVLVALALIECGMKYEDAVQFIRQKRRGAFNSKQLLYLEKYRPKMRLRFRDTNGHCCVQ
Protocol: In vitro PTPase activities were measured using the commercial protein tyrosine phosphatase assay kit (UBI) following established procedure. […] 100 μl of Malachite Green solution was added and incubated for 5 minutes, and the absorbance at 660 nm was measured after 5 minutes.
Recombinant GST fusion proteins of human PRL-1, 2 and 3 phosphatases were purified with glutathione beads from DH5α bacteria transformed by pGEX vectors containing cDNA fragments encoding the human PRLs which were generated by RT-PCR from H9 cells and confirmed by sequence analysis. Activities of the purified recombinant PRL proteins in dephosphorylating DiFMUP in the absence or presence of various inhibitors were measured following established procedure.
To assess whether sodium stibogluconate is an inhibitor of oncogenic PRL phosphatases, its effects on the PTPase activity of recombinant PRLs were evaluated by in vitro PTPase assays.

[4] = molecular target: T2, intracellular Flag-PRL-2 (Homo sapiens, UniProt Q12974); test: PTPase activity of anti-Flag immunocomplexes from NIH3T3 transfectants; assay type: cell-based
T2 construct: expressed in transfected cells; host or cells: NIH3T3
T2 sequence (Q12974 1-167): T1 sequence (Q12974 1-167)
Protocol: An expression construct of Flag-tagged PRL-1 or control vector was transfected into NIH3T3 cells which were then treated without or with sodium stibogluconate and used for immunoprecipitation assays with a monoclonal anti-Flag antibody. The immunocomplexes were analyzed by SDS-PAGE/Western blotting and PTPase assays. A Flag-tagged protein with a molecular weight approximately 22 kDa as expected for Flag-PRL-1 was detected in the immunocomplexes from untreated or sodium stibogluconate -treated Flag-PRL-1 transfectants but not in those from the control cells (FIG. 6A).
Flag-PRL-2 transfectants were briefly treated with sodium stibogluconate for 5 minutes, washed to remove cell-free drug and then incubated for various times prior to termination by cell lysis. Anti-Flag immunocomplexes from the cells were analyzed by SDS-PAGE/Western blotting and PTPase assays. The amounts of Flag-PRL-2 proteins in the immunocomplexes were at similar levels as quantified by probing with an anti-Flag antibody. […] PTPase activity of the immunocomplexes from cells incubated for 24 hours was 78% of the untreated cells.
Glucatime-induced inactivation of intracellular PRL-2 lasts more than 24 hours. NIH3T3 stable transfectant of Flag-tagged PRL-2 was treated with glucatime for 5 minutes, washed to remove cell free drug and then incubated for various times prior to termination by lysing the cells in lysis buffer. Flag-tagged PRL-2 was immunoprecipitated from the cell lysates using a monoclonal anti-Flag antibody. The amounts of Flag-tagged PRL-2 in the immunocomplexes were quantified by SDS-PAGE/Western blotting with the anti-Flag antibody (A). Activities of the immunocomplexes in dephosphorylating a synthetic phosphotyrosine peptide were determined by in vitro PTPase assays (B).

[5] = system: WM35 cells (Melanoma); test: Growth inhibition of human tumor cell lines; assay type: cell-based; settings: SS 12.5 μg/ml, IFNα 1,000 u/ml, alone or combined
[6] = system: C42 cells (Prostate cancer); test: Growth inhibition of human tumor cell lines; assay type: cell-based; settings: SS 12.5 μg/ml, IFNα 1,000 u/ml, alone or combined
[7] = system: MDA435 cells (Breast cancer); test: Growth inhibition of human tumor cell lines; assay type: cell-based; settings: SS 12.5 μg/ml, IFNα 1,000 u/ml, alone or combined
[8] = system: Peer cells (T-ALL); test: Growth inhibition of human tumor cell lines; assay type: cell-based; settings: SS 12.5 μg/ml, IFNα 1,000 u/ml, alone or combined
[9] = system: prostate cancer; settings: cited from earlier work

| Molecule | proliferation of NB4 cells ([1]; 12.5-400 μg/ml, 6 days) | cell cycle arrest (DNA content analysis) ([1]; 3 days, sodium stibogluconate 250 μg/ml, ATRA 1 μM) | expression levels of PML/RARα chimeric protein ([1]; NB4 cells) | NB4 cell differentiation (NBT positive cells) ([1]; dose- and time-dependent) | efficacy in Leishmaniasis ([2]; 20 mg Sb/kg body weight per day i.m. daily for 10-14 days) | known toxicity profile ([2]; human, in vivo) | single dose used without serious toxicity ([2]; human, in vivo) | reversibility of PRL-2 inactivation [3] | PTPase activity of Flag-PRL-2 immunocomplexes from treated transfectants ([4]; treated 5 min) | duration of intracellular PRL-2 inactivation ([4]; treated 5 minutes, washed to remove cell free drug) | % of growth inhibition by day 6 (±s.d.) [5] | % of growth inhibition by day 6 (±s.d.) [6] | % of growth inhibition by day 6 (±s.d.) [7] | % of growth inhibition by day 6 (±s.d.) [8] | patients in whom the cytokine is effective [9] |
| --- | --- | --- | --- | --- | --- | --- | --- | --- | --- | --- | --- | --- | --- | --- | --- |
| O.O.O.O.O.O.O.O.O.O=C([O-])[C@@H]1[O][Sb]2([O-])([O][Sb]34([OH])[O][C@H]([C@H](O)CO)[C@H]([O]3)[C@H](C(=O)[O-])[O]4)[O][C@H]([C@H](O)CO)[C@@H]1[O]2.[Na+].[Na+].[Na+] [sodium stibogluconate] | markedly inhibited | growth arrest at S phase | no detectable effect | induced | 70-100% | modest cardiac toxicity and leukopenia | up to 143 mg Sb/kg | irreversibly inhibits | lack of PTPase activity | at least 24 hours |  |  |  |  |  |
| IFNα |  |  |  |  |  |  |  |  |  |  | 19 (3) % | +19 (30) % | 29 (15) % | 86 (4) % | 5% |
